Assay results from patent US7625917B2, “Thiolesters and uses thereof” (priority 1998, dated 2009).
Read-outs that look alike come from different tables or passages of the source.

Tests used:
[1] = target: T1, recombinant HIV-1 NCp7 protein (Human immunodeficiency virus type 1 group M subtype B, UniProt P03347); assay: Trp37 zinc finger fluorescence (zinc ejection) assay; type: biochemical; details: for zinc finger reactivity in the presence of glutathione (in words): 2 molar excess of glutathione; for Zinc Finger Reactivity RFU/min: average decrease in relative fluorescence units over 30 min; for inhibition at 2000 µM (stock): Table 8, GSH +: 2 mM compound, 2 h at 37° C. with 4 mM reduced glutathione, 30 min incubation, read-out: Zinc Finger Reactivity % Decrease
T1 construct: recombinant HIV-1 NCp7 protein
Experimental: Zinc finger reactivity was measured using a Zn specific fluorochrome, TSQ, N-(6-methoxy-8-quinolyl)-p-toluenesulfonamide, assay or a Trp37 zinc finger fluorescence assay. Fluorescent measurements of the Trp37 residue in the C-terminal finger of recombinant HIV-1 NCp7 protein were performed as described by Rice (1995) Science 270:1194-1197; Rice (1997) Antimicrob. Agents Chemother. 41:419-426. Measurement of Zn ejection from both fingers was measured using the Zn-selective fluorchrome probe TSQ (Molecular Probes, Eugene Oreg.) as described by Rice (1996) J. Med. Chem 39:3606-3616. […] Briefly, 50 nM NCp7 was treated with test compounds for 1 hour at RT in […] buffer containing 10% glycerol and 50 mM Tris-HCl (pH 7.5). Labeled oligomer (0.1 picomole, end labeled [^32P] was added in an equal volume of buffer containing 10% glycerol, 50 mM Tris-HCl (pH 7.5), 400 mM KCl and 40 mM MgCl2. The reaction was continued for 15 min at room temperature, and a total of […] (or ¼ of the total reaction volume) was separated on nondenaturing 4.5% polyacrylamide gels in 0.5× Tris-Borate electrophoresis buffer. NCp7-oligomer complexes were visualized by autoradiography.
Changes in the intrinsic fluorescence of aromatic protein moieties are commonly used to monitor a reaction which involves a change in protein conformation. In the present invention, fluorescence can be used to monitor the loss of metal ion from a zinc finger, e.g., the loss of zinc from a CCHC retroviral zinc finger protein, after contact with a thiolester of the invention. The intrinsic fluorescence of Trp37 in the second zinc finger of HIV-1 NC protein has been used to monitor nucleic acid binding and conformation of the zinc finger complex (see, Summers (1992) supra).
Zinc ejection is measured by the ability of compounds to chemically attack the cysteines in purified NCp7 protein resulting in a loss of fluorescence due to the. movement of the tryptophan 37 residue […] position on the protein. Zinc ejection is measured and expressed as either percent decrease in total fluorescence or decrease in relative fluorescence units per min during a 30 min assay (RFU/min). A thiolester is considered within the scope of the invention if any amount of zinc ejection is detected.

[2] = target: T2, recombinant HIV-1 reverse transcriptase (Human immunodeficiency virus type 1 group M subtype B, UniProt P03366); assay: HIV-1 reverse transcriptase assay (rAdT and rCdG template/primer); type: biochemical
T2 construct: recombinant HIV-1 reverse transcriptase; S. Hughes, ABL Basic Research NCI-FCRDC, Frederick Md
Experimental: The 5-bromovaleroyl thioester, compound 44, and two 5-pyridiniovaleroyl thioesters, compounds 45and 47, were analyzed in mechanistic and target-based assays. […] Assays for activity against HIV-1 reverse transcriptase rAdT (template/primer) and rCdG (template/primer) using recombinant HIV-1 reverse transcriptase (S. Hughes, ABL Basic Research NCI-FCRDC, Frederick Md.) were performed as described by Rice (1997) supra. Substrate cleavage of recombinant HIV-1 protease in the presence of test compounds using an HPLC-based methodology with the artificial substrate Ala-Ser-Glu-Asn-Try-Pro-Ile-Val-amide (Multiple Peptide Systems, San Diego Calif.) was performed as described by Rice (1997) supra. The ability of recombinant HIV-1 integrase (S. Hughes, ABL Basic Research NCI-FCRDC, Frederick Md.) to carry out 3′ processing and strand transfer activities in the presence of test compounds was performed as described by Buckheit (1994) AIDS Res. Hum. Retroviruses 10:1497-1506, and Turpin (1998) Antimicrob. Agents Chemother. 42: 487-494.

HIV-1NL4-3 = assay: Virucidal (viral inactivation) assay on MAGI-CCR-5 cells; type: cell-based
Experimental: The cell-based p24 attachment assay was performed as described in Rice (1995) Science 270:1194-1197. Viral inactivation assays were carried out as described in Rice (1995) Science 270:1194-1197, and Turpin (1997) supra, with minor modifications. Briefly, MAGI-CCR-5 cells were plated (4×10^4 cells per well) in flat bottomed 2-cm well plates for 24 h, after which the culture media was removed and compound-treated virus was added. The virus used was obtained by transient transfection of pNL4-3 into HeLa cells yielding the replication competent NL4-3 virus. Virus containing supernatants were treated for 2 h at 37° C. after which residual compound was removed by centrifugation (18,000×g, 1 h, 4° C.). Virus pellets were resuspended and placed on the MAGI-CCR-5 monolayers and cultured for 48 h. Monolayers were fixed and stained with X-gal solution and blue cells counted.
NCp7 cross-linking is associated with viral inactivation. Whether the ability to crosslink the nucleocapsid protein, as determined by Western blotting, correlated with the ability to inactivate the viruses was tested in a virucidal assay. Virus stocks of HIV-1NL4-3 were incubated with various thiolester compounds. The virus was obtained by transient transfection of a replication-competent pNL4-3 plasmid into HeLa cells. Residual thiolester was removed by centrifugation. […]

HIV-1RF = assay: XTT cytoprotection assay (antiviral activity); type: cell-based

Compound | zinc finger reactivity (in words) [1] | zinc finger reactivity in the presence of glutathione (in words) [1] | Zinc Finger Reactivity RFU/min ([1]; Table 5) [RFU/min] | Zinc Finger Reactivity RFU/min ([1]; Table 6) [RFU/min] | inhibition at 2000 µM (stock) [1] [%] | inhibition of HIV-1 reverse transcriptase (in words) [2] | IC50 [2] [µM] | IC50 ([2]; read-out: Reverse transcriptase rCdG I50, Table 7, rCdG template/primer, high dose test 100 μM) [µM] | potency at inactivating virus vs compounds 44 and 45 (HIV-1NL4-3) | zinc finger reactivity / zinc ejection rate [1] [RFU/min] | Zinc Finger Reactivity RFU/min ([1]; Table 10) [RFU/min] | antiviral activity (in words) (HIV-1RF) | EC50 (HIV-1RF; Human immunodeficiency virus 1, Table 6, read-out: EC50 %) [µM] | virucidal activity (in words) (HIV-1NL4-3)
CC(=O)NS(=O)(=O)c1ccc(NC(=O)c2ccccc2SC(=O)CCCCBr)cc1 [Compound 44, N-[2-(5-bromovaleroylthio)benzoyl]sulfacetamide] | promoted metal ion (zinc) ejection | maintained the capacity to attack the cysteine thiols | 1.8 | 1.8 | 28 | did not inhibit |  |  |  |  |  |  |  | 
O=C(CCCC[n+]1ccccc1)Sc1ccccc1C(=O)Nc1ccc(S(=O)(=O)c2ccc([N+](=O)[O-])cc2)cc1 [Compound 47] | promoted metal ion (zinc) ejection | maintained the capacity to attack the cysteine thiols |  | 4.1 | 21.1 | did not inhibit | > 100 | > 100 | approximately 6 fold |  |  |  |  | 
CC(=O)NS(=O)(=O)c1ccc(NC(=O)c2ccccc2SC(=O)CCCC[n+]2ccccc2)cc1 [Compound 45, N-[2-(5-pyridinio-valeroylthio)benzoyl]sulfacetamide bromide] | promoted metal ion (zinc) ejection | maintained the capacity to attack the cysteine thiols | 3.6 | 3.6 | 36.9 | did not inhibit |  |  |  | 3.6 | 3.6 |  |  | 
O=C(O)CCCC[n+]1ccccc1.[Br-] [Compound 53, 5-pyridiniovaleric acid] |  |  |  | 4 |  |  |  |  |  | 4 |  | without antiviral activity | > 316 | Neither intravirion cross-linkage of NCp7 nor virucidal activity were detected
